One assay addresses TBK1 (Homo sapiens (Human), UniProt Q9UHD2). As to the kind of experiment: Lanthascreen TR-FRET kinase inhibition assay, TBK1. Format: biochemical. The conditions noted are these: 20 μM ATP (apparent Km), 8 nM kinase, 2.5 h. As for the experimental part: (§1) Compounds of the invention (synthesised as described below) were tested for activity against the IKKε and TBK-1 enzyme as follows:
(§2) Inhibitions studies were performed using a time-resolved fluorescence-based Lanthascreen™ assay. Phosphorylation of a fluorescein-labelled substrate peptide is measured using terbium-labeled phosphospecific antibodies.
(§3) Kinase inhibition assays (10 μL) were performed at 20° C. in 384-well plate format. […] The final reaction conditions contained 400 nM fluorescein-IkBα substrate ([…]), 20 μM ATP, 2 nM or 8 nM IKKε or TBK1 kinase respectively, and 3% DMSO in kinase assay buffer consisting of 50 mM HEPES (pH 7.5), 10 mM MgCl, 1 mM EGTA, 0.01% Brij-35.
(§4) Compound dilutions were prepared from 10 mM DMSO stocks by dilution into DMSO.
(§5) The kinase phosphorylation assay was initiated by the addition of the kinase and the reaction was allowed to proceed for 1 h or 2.5 h for IKKε and TBK-1 kinase respectively.

Another assay has as its target IKKε (Homo sapiens (Human), UniProt Q14164). As to the kind of experiment: Lanthascreen TR-FRET kinase inhibition assay, IKKε. Format: biochemical. The conditions noted are these: 20 μM ATP (apparent Km), 2 nM kinase, 1 h. As for the experimental part: as §1, §2, §3, §4, §5
(In general: TR-FRET usually uses a lanthanide donor and a delayed reading to cut background.)

Structures are written as SMILES.

Sequence of TBK1 (Q9UHD2 whole entry): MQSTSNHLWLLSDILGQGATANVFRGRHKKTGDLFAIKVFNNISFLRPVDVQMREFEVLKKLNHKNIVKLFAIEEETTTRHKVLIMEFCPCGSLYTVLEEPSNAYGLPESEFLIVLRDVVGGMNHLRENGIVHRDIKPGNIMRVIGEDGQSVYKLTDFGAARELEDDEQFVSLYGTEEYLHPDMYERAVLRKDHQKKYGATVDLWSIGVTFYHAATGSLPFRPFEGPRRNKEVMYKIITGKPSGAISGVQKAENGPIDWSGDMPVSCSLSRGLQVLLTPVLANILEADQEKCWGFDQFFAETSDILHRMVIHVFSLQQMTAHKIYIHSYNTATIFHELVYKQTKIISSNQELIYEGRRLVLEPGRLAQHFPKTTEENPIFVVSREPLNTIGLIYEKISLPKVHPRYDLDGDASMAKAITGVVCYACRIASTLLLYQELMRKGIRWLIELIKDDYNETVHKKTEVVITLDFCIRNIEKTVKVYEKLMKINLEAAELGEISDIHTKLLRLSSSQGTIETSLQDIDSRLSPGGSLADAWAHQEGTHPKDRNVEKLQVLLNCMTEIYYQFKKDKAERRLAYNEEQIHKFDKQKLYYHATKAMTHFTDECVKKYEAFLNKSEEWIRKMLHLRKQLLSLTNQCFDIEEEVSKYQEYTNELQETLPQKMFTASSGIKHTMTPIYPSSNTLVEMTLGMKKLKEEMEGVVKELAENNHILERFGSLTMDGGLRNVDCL
Sequence of IKKε (Q14164 whole entry): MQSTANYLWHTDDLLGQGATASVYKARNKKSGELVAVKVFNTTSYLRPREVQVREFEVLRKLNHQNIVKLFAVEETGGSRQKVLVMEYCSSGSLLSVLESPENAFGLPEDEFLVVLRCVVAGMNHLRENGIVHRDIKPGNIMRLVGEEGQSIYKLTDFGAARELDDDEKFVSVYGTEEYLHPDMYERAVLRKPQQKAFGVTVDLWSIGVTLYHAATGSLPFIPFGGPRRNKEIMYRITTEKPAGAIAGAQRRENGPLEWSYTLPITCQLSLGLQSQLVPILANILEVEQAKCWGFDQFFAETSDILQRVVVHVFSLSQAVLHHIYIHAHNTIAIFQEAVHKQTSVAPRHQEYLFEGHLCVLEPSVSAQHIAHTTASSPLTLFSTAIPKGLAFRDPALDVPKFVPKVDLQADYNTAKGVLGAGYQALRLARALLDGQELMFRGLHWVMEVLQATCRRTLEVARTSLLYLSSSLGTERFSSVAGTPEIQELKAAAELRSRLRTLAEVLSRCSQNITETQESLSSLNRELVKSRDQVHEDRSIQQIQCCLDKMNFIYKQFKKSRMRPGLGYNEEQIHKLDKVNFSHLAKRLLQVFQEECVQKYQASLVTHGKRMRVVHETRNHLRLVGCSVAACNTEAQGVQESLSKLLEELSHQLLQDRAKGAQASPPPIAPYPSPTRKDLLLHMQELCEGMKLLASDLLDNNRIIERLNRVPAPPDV

With `CN1CCC(NC(=O)c2cccc(Nc3nccc(-c4cnc(N5CC[C@H](F)C5)c(C#N)c4)n3)c2)CC1` [DMX-1, 3-{4-[5-Cyano-6-((S)-3-fluoro-pyrrolidin-1-yl)-pyridin-3-yl]-pyrimidin-2-ylamino}-N-(1-methyl-piperidin-4-yl)-benzamide], the concentration for half-maximal inhibition (IC50) – broadly, the concentration that gives 50% inhibition – at TBK1 was < 30 nM; at IKKε, < 100 nM.

As for `N#Cc1cc(-c2ccnc(Nc3cccc(C(N)=O)c3)n2)cnc1N1CCCC1` [DMX-2, 3-[4-(5-Cyano-6-pyrrolidin-1-yl-pyridin-3-yl)-pyrimidin-2-ylamino]-benzamide], the half-inhibitory concentration (IC50) at TBK1 and on IKKε was < 30 nM in each case.

`CN1CCN(c2ccc(Nc3nccc(-c4cnc(N5CCCC5)c(C#N)c4)n3)cn2)CC1` [DMX-3, 5-{2-[6-(4-Methyl-piperazin-1-yl)-pyridin-3-ylamino]-pyrimidin-4-yl}-2-pyrrolidin-1-yl-nicotinonitrile]: the IC50 on TBK1 and on IKKε was < 15 nM each time.

In the case of `N#Cc1cc(-c2ccnc(Nc3ccc(N4CCOCC4)cc3)n2)cnc1N1CCCC1` [DMX-5, 5-[2-(4-Morpholin-4-yl-phenylamino)-pyrimidin-4-yl]-2-pyrrolidin-1-yl-nicotinonitrile], the values for the 50% inhibitory concentration (IC50) on TBK1 and on IKKε were < 15 nM and < 30 nM, respectively.

Turning to `CN1CCN(C(=O)c2cccc(Nc3nccc(-c4cnc(N5CC[C@H](F)C5)c(C#N)c4)n3)c2)CC1` [DMX-6, 2-((S)-3-Fluoro-pyrrolidin-1-yl)-5-{2-[3-(4-methyl-piperazine-1-carbonyl)-phenylamino]-pyrimidin-4-yl}-nicotinonitrile], the IC50 was < 30 nM on TBK1 and < 100 nM at IKKε.

Take `Cn1cc(Nc2nccc(-c3cnc(N4CC[C@H](F)C4)c(C#N)c3)n2)cn1` [DMX-7, 2-((S)-3-Fluoro-pyrrolidin-1-yl)-5-[2-(1-methyl-1H-pyrazol-4-ylamino)-pyrimidin-4-yl]-nicotinonitrile]: the IC50 on TBK1 and on IKKε was < 30 nM each time.

For `CC(=O)Nc1ccc(Nc2nccc(-c3cnc(N4CC[C@H](F)C4)c(C#N)c3)n2)cn1` [DMX-8, N-(5-{4-[5-Cyano-6-((S)-3-fluoro-pyrrolidin-1-yl)-pyridin-3-yl]-pyrimidin-2-ylamino}-pyridin-2-yl)-acetamide], the half-inhibitory concentration (IC50) at TBK1 and at IKKε was < 30 nM in each case.

Turning to `CN1CCC(Nc2ccc(Nc3nccc(-c4cnc(N5CC[C@H](F)C5)c(C#N)c4)n3)cn2)CC1` [DMX-9, 2-((S)-3-Fluoro-pyrrolidin-1-yl)-5-{2-[6-(1-methyl-piperidin-4-ylamino)-pyridin-3-ylamino]-pyrimidin-4-yl}-nicotinonitrile], the results for the IC50 on TBK1 and on IKKε were < 30 nM and < 15 nM, respectively.

`N#Cc1cc(-c2ccnc(Nc3ccc(NC4CCNCC4)nc3)n2)cnc1N1CC[C@H](F)C1` [DMX-10, 2-((S)-3-Fluoro-pyrrolidin-1-yl)-5-{2-[6-(piperidin-4-ylamino)-pyridin-3-ylamino]-pyrimidin-4-yl}-nicotinonitrile]: the IC50 at TBK1 and at IKKε was < 30 nM in each case.

In the case of `N#Cc1cc(-c2ccnc(Nc3cccc(C(=O)NC4CCNCC4)c3)n2)cnc1N1CC[C@H](F)C1` [DMX-11, 3-{4-[5-Cyano-6-((S)-3-fluoro-pyrrolidin-1-yl)-pyridin-3-yl]-pyrimidin-2-ylamino}-N-piperidin-4-yl-benzamide], the concentration for half-maximal inhibition (IC50) on TBK1 and on IKKε was < 30 nM throughout.

As to `CN1CCC(NC(=O)c2cccc(Nc3nccc(-c4cnc(N5CC[C@H](O)C5)c(C#N)c4)n3)c2)CC1` [DMX-12, 3-{4-[5-Cyano-6-((S)-3-hydroxy-pyrrolidin-1-yl)-pyridin-3-yl]-pyrimidin-2-ylamino}-N-(1-methyl-piperidin-4-yl)-benzamide], the half-inhibitory concentration (IC50) at TBK1 was < 100 nM; on IKKε, < 1000 nM.

On to `CN1CCC(Nc2ccc(Nc3nccc(-c4cnc(N5CC[C@H](O)C5)c(C#N)c4)n3)cn2)CC1` [DMX-13, 2-((S)-3-Hydroxy-pyrrolidin-1-yl)-5-{2-[6-(1-methyl-piperidin-4-ylamino)-pyridin-3-ylamino]-pyrimidin-4-yl}-nicotinonitrile], for which the IC50 on TBK1 and on IKKε was < 100 nM in each case.
